Measurements taken from patent publication US12616698B2, “Methods for reducing liver fat and for treating fatty liver disorders” (Corcept Therapeutics Incorporated, priority 2021, dated 2026).
“Also recorded” adds a separate entry of the source.

Columns and labels:
Type in all cases: in vivo, human
[1] = tested on: patients presumed to have NASH; test: Phase 2a study: liver volume and liver size by MRI; conditions: for Percent Change from Baseline in Liver: liver volume
From the text: A Phase 2a, randomized, double-blind, placebo-controlled study (ClinicalTrials.gov Identifier: NCT03823703) was begun to assess the efficacy of two dose levels of miricorilant versus placebo in reducing liver fat in patients who were presumed to have non-alcoholic steatohepatitis (NASH), that presumption based on blood tests and noninvasive measures. Written informed consent was obtained before initiating any study-mandated procedures. The full study was planned to enroll approximately 120 patients, randomized 1:1:1 to receive daily 900 mg miricorilant:600 mg miricorilant: matching placebo.
Patients were randomized in a 1:1:1 ratio to 600 mg miricorilant, 900 mg miricorilant, or placebo. Study drug was administered once daily, orally with 8 oz (240 mL) of water, along with food. Patients were instructed to take a total of 6 tablets at approximately the same time each day. Those in the 600 miricorilant group took 4 miricorilant tablets and 2 placebo tablets. Those in the 900 miricorilant group took 6 miricorilant tablets. Those in the placebo group took 6 placebo tablets. For the week 6 visit, patients were instructed to not take their daily study drug prior to the visit, but to bring their study drug to the site with them so that the study drug can be administered at the site.
MRI images showing the liver of a patient before (left-hand images) and after receiving daily 600 mg miricorilant (right-hand images) are presented in FIGS. 3A, 3B, and 3C.

[2] = tested on: patients presumed to have NASH; test: Phase 2a study: NASH biomarkers (pro-C3, ELF score and its components); conditions: for Enhanced Liver Fibrosis (ELF) Score, Change from Baseline mean / Enhanced Liver Fibrosis (ELF) Score, Value mean: unitless
Experimental: Measures of the effectiveness of miricorilant versus placebo in reducing liver fat were assessed by magnetic resonance imaging (MRI). The change from baseline MRI measurements relative to MRI measurements taken following a course of daily miricorilant or placebo administration were assessed by magnetic resonance imaging-proton density fat fraction (MRI-PDFF). Additionally, effects of miricorilant may be assessed by measuring one or more of the following, either by comparing change from baseline after one or more days of miricorilant administration, or by comparing measurements in patients administered miricorilant versus patients administered placebo: change in liver fat assessed by MRI-PDFF; change in AST, ALT, and gamma-glutamyl transferase (GGT); change in propeptide of type III collagen (pro-C3); change in enhanced liver fibrosis (ELF) score and its components (hyaluronic acid, tissue inhibitor of metalloproteinases-1 [TIMP-1], type III procollagen [PIIINP]); change in ACTH, serum cortisol, and serum aldosterone (pharmacodynamic assessments); change in Homeostatic Model Assessment of Insulin Resistance (HOMA-IR); change in absolute body weight; and other measurements. […] For patients with diabetes, change in HbA1c and change in fasting blood glucose may be measured to assess the effects of miricorilant. Change in blood pressure may be measured in patients with high blood pressure to assess the effects of miricorilant. Pharmacokinetic (PK) parameters were estimated from steady state plasma concentrations of miricorilant.
NASH biomarkers include AST, ALT, GGT, pro-C3, ELF score and its components (hyaluronic acid, TIMP-1, PIIINP). Blood for measuring levels of AST, ALT, and GGT (as part of the chemistry panel) will be collected. Small fragments of collagen, called propeptides, are released during fibrosis. Pro-C3 is the propeptide of type III collagen and detection of pro-C3 is anticipated to reflect the formation of new fibrotic tissue in the liver (Vilar-Gomez and Chalasani 2018). Blood samples for measuring pro-C3 were collected. […] Each of these markers is measured by an immunoassay and an ELF score is generated, from which a level of fibrosis severity can be determined.
(Units are nanograms per milliliter (ng/mL) except for the enhanced liver fibrosis score (ELF), which is unitless.)

[3] = tested on: patients with presumed NASH; test: Example 6 study, dosing-regimen cohorts: liver fat content (MRI-PDFF) and markers; conditions: for Mean reduction in LFC: Week 6 (FIG. 10)
Experimental: This study was a double-blind, multi-center, placebo-controlled, randomized 3-arm phase 2a study (NCT03823703) conducted to assess the safety and efficacy of miricorilant in reducing liver fat content (LFC) in patients with presumed NASH. Adult patients (18-75 years) with presumed NASH were randomized 1:1:1 to miricorilant 600 mg daily, miricorilant 900 mg daily, or placebo for 12 weeks. […] Abbreviations used in this Example and in the Figures include: ALP, alkaline phosphatase; ALT, alanine aminotransferase; AST, aspartate aminotransferase; ELF, enhanced liver fibrosis; LFC, liver fat content; NASH, non-alcoholic steatohepatitis; ULN, upper limit of normal; AUC, area under the concentration-time curve; Cmax, maximum concentration; EOT, end of treatment; GGT, gamma-glutamyltransferase; INR, international normalized ratio; MRI-PDFF, magnetic resonance imaging-proton density fat fraction; pt, patient; SD, standard deviation; ULN, upper limit of normal; Wk, week.
Key inclusion criteria included that the patients be adults between 18-75 years old; be presumed to suffer from NASH with fibrosis; have LFC as measured by MRI-PDFF≥8%; have levels of AST<5×ULN and ALT<5×ULN; and have eGFR>60 mL/min/1.73 m^2. Primary endpoints included relative change in LFC from baseline by MRI-PDFF. Secondary endpoints included change from baseline in AST, ALT, GGT, and change from baseline in ELF score.
Patients were divided into different cohorts and received different regimens of miricorilant. The cohorts included patients receiving 30 mg mircorilant once per day; patients receiving 50 mg mircorilant once per day; patients receiving 100 mg mircorilant once per day; patients receiving 150 mg mircorilant once per day; patients receiving 100 mg mircorilant on Mondays, Wednesdays, and Fridays; patients receiving 100 mg mircorilant on Mondays and Fridays; and patients receiving 200 mg mircorilant once per week. Patients receiving 100 mg mircorilant on Mondays and Fridays were termed “Cohort 6”.

O=c1[nH]c(=O)c(Cc2cccc(C(F)(F)F)c2)c([C@H]2CC[C@H](c3ccccc3)CC2)[nH]1 [miricorilant, (E)-6-(4-Phenylcyclohexyl)-5-(3-trifluoromethylbenzyl)-1H-pyrimidine-2,4-dione]
Follow-Up Liver Volume ([1]; Patient 1 (responder), 900 mg, baseline 1606 mL): 1303 mL
Follow-Up Liver Volume ([1]; Patient 2 (responder), 900 mg, baseline 1675 mL): 1314 mL
Follow-Up Liver Volume ([1]; Patient 3 (responder), 900 mg, baseline 3857 mL): 3113 mL
Follow-Up Liver Volume ([1]; Patient 4 (responder), 600 mg, baseline 1899 mL): 1505 mL
Percent Change from Baseline in Liver ([1]; Patient 1 (responder), 900 mg): −18.9%
Percent Change from Baseline in Liver ([1]; Patient 2 (responder), 900 mg): −21.6%
Percent Change from Baseline in Liver ([1]; Patient 3 (responder), 900 mg): −19.3%
Percent Change from Baseline in Liver ([1]; Patient 4 (responder), 600 mg): −20.7%
Hyaluronic Acid, Change from Baseline mean ([2]; 600 mg Miricorilant (N = 5)): -17.8 ng/mL
Hyaluronic Acid, Value mean ([2]; 600 mg Miricorilant (N = 5)): 70.7 ng/mL
Propeptide of Type III Collagen (pro-C3), Change from Baseline mean ([2]; 600 mg Miricorilant (N = 5)): 0.5 ng/mL
Propeptide of Type III Collagen (pro-C3), Value mean ([2]; 600 mg Miricorilant (N = 5)): 10.7 ng/mL
Tissue Inhibitor of Metalloproteinases-1 (TIMP-1), Change from Baseline mean ([2]; 600 mg Miricorilant (N = 5)): 3.2 ng/mL
Tissue Inhibitor of Metalloproteinases-1 (TIMP-1), Value mean ([2]; 600 mg Miricorilant (N = 5)): 249.5 ng/mL
Type III Procollagen (PIIINP), Change from Baseline mean ([2]; 600 mg Miricorilant (N = 5)): -0.17 ng/mL
Type III Procollagen (PIIINP), Value mean ([2]; 600 mg Miricorilant (N = 5)): 9.3 ng/mL
Enhanced Liver Fibrosis (ELF) Score, Change from Baseline mean ([2]; 600 mg Miricorilant (N = 5)): −0.05
Enhanced Liver Fibrosis (ELF) Score, Value mean ([2]; 600 mg Miricorilant (N = 5)): 9.4
Hyaluronic Acid, Change from Baseline mean ([2]; 900 mg Miricorilant (N = 3)): -50.0 ng/mL
Hyaluronic Acid, Value mean ([2]; 900 mg Miricorilant (N = 3)): 110.9 ng/mL
Propeptide of Type III Collagen (pro-C3), Change from Baseline mean ([2]; 900 mg Miricorilant (N = 3)): -7.9 ng/mL
Propeptide of Type III Collagen (pro-C3), Value mean ([2]; 900 mg Miricorilant (N = 3)): 24.1 ng/mL
Tissue Inhibitor of Metalloproteinases-1 (TIMP-1), Change from Baseline mean ([2]; 900 mg Miricorilant (N = 3)): -79.4 ng/mL
Tissue Inhibitor of Metalloproteinases-1 (TIMP-1), Value mean ([2]; 900 mg Miricorilant (N = 3)): 402.1 ng/mL
Type III Procollagen (PIIINP), Change from Baseline mean ([2]; 900 mg Miricorilant (N = 3)): -5.35 ng/mL
Type III Procollagen (PIIINP), Value mean ([2]; 900 mg Miricorilant (N = 3)): 17.7 ng/mL
Enhanced Liver Fibrosis (ELF) Score, Change from Baseline mean ([2]; 900 mg Miricorilant (N = 3)): −0.90
Enhanced Liver Fibrosis (ELF) Score, Value mean ([2]; 900 mg Miricorilant (N = 3)): 10.6
Lipid levels (LDL and VLDL) ([3]; 100 mg twice per week, Mondays and Fridays (FIG. 16)): reductions
Glycemic markers ([3]; 100 mg twice per week, Mondays and Fridays (FIG. 17)): reductions
Fibrosis markers ([3]; 100 mg twice per week, Mondays and Fridays (FIG. 18)): reductions
LFC (MRI-PDFF) and liver enzyme levels (ALT and AST) ([3]; 100 mg twice per week, Mondays and Fridays, twelve weeks (FIG. 15)): reductions
Reduction in liver fat ([3]; 100 mg twice weekly, over 12 weeks): −30%
LFC mean % change from baseline ([3]; Cohort 6, miricorilant 100 mg twice weekly, week 12): −28.2%
LFC mean % change from baseline ([3]; daily doses of miricorilant 50-150 mg, week 6): −22.3%
Hepatic, lipid, and glycemic markers ([3]; miricorilant treatment, including 100 mg twice weekly): improvements; also recorded: improved
Weight loss ([3]; patients whose ALT and/or AST levels remain below 3 times normal): significant
Weight loss ([3]; patients whose ALT and/or AST levels rise above 3 times normal): even greater than for the other group
Slope of LFC decline ([3]; responders with ALT>3×ULN): −8.76
Slope of LFC decline ([3]; responders without ALT>3×ULN): −4.24
Mean reduction in LFC ([3]; treatment responders with ALT>3×ULN): −52.6%
Mean reduction in LFC ([3]; treatment responders without ALT>3×ULN): −25.5%
